Reference: patent publication US10214508B2, “Nitrogen-containing heterocyclic compound” (Takeda Pharmaceutical Company Limited, priority 2014, dated 2019)

These compounds were tested against T1, human M1 receptor (hCHRM1) (Homo sapiens, UniProt P11229) (assay: Measurement of M1 receptor positive allosteric modulator (M1PAM) activity, calcium fluorescence (FLIPRtetra)). Details: 10 μM test compound with acetylcholine at EC20 (final 0.6-0.8 nM); 100% = acetylcholine 1 μM, 0% = DMSO; CHO-K1 cells expressing hCHRM1.
T1 construct: expressed in transfected cells
T1 sequence (P11229 1-460): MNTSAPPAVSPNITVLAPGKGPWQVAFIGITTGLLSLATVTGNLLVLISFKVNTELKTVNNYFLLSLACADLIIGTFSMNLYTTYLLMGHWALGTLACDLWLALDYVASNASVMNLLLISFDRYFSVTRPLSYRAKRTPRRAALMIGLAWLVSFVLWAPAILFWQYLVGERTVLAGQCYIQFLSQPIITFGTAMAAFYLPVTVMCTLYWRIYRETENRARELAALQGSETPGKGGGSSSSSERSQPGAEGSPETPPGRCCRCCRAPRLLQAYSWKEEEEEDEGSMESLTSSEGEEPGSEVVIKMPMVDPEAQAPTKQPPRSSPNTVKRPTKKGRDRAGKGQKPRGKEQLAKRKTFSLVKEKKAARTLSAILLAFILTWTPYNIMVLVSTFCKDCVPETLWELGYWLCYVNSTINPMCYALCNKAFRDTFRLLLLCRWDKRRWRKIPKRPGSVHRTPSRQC
Format: cell-based
Description: Measurement of M1 Receptor Positive Allosteric Modulator (M1PAM) Activity
The activity of a test compound in the presence of acetylcholine at EC20 concentration (final concentration 0.6-0.8 nM), which affords an action corresponding to about 20% of the maximum activity, was measured as PAM activity. The method is as follows. CHO-K1 cells stably expressing a human M1 receptor (hCHRM1) were plated on a 384-well black clear bottom plate (BD Falcon) at 5,000 cells/well, and cultured in an incubator at 37° C., 5% CO2 for 1 day. The medium in the cell plate was removed, and assay buffer A containing calcium indicator (Recording medium (DOJINDO LABORATORIES), 0.1% BSA (Wako Pure Chemical Industries, Ltd.), 2.5 μg/mL Fluo-4 AM (DOJINDO LABORATORIES), 0.08% Pluronic F127 (DOJINDO LABORATORIES), 1.25 mM probenecid (DOJINDO LABORATORIES)) was added at 30 μL/well. The cells were left standing in the incubator at 37° C., 5% CO2 for 30 min, and further left standing at room temperature for 30 min. A test compound prepared by diluting with assay buffer B (HBSS (Invitrogen), 20 mM HEPES (Invitrogen), 0.1% BSA) containing 2.4-3.2 nM acetylcholine was added at 10 μL/well, and the fluorescence was measured by FLIPRtetra (Molecular Devices) for 1 min every for 1 second. With the definition that the amount of change in the fluorescence on addition of acetylcholine (final concentration 1 μM) is 100% and that on addition of DMSO instead of a test compound is 0%, the activity (%) of the test compound was calculated, and the inflection point in the concentration-dependent curve of the test compound was calculated as IP values.

| activity (%) at 10 μM [%] | Structure (SMILES) |
| --- | --- |
| 90 | COc1cnc(C(=O)N[C@H]2CCCC[C@@H]2O)cc1Cc1ccc(-c2cnn(C)c2)nc1 [Example 59, N-((1S,2S)-2-hydroxycyclohexyl)-5-methoxy-4-((6-(1-methyl-1H-pyrazol-4-yl)pyridin-3-yl)methyl)pyridine-2-carboxamide] |
| 87 | COc1cnc(C(=O)N[C@H]2CCC[C@@H]2O)cc1Cc1ccc(-n2cccn2)cc1 [Example 60, N-((1S,2S)-2-hydroxycyclopentyl)-5-methoxy-4-(4-(1H-pyrazol-1-yl)benzyl)pyridine-2-carboxamide] |
| 108 | COc1cnc(C(=O)N[C@H]2CCCC[C@@H]2O)cc1Cc1ccc(Cl)nc1 [Example 61, 4-((6-chloropyridin-3-yl)methyl)-N-((1S,2S)-2-hydroxycyclohexyl)-5-methoxypyridine-2-carboxamide] |
| 96 | COc1cnc(C(=O)N[C@H]2CCCC[C@@H]2O)cc1Cc1ccc(Br)cc1 [Example 62, 4-(4-bromobenzyl)-N-((1S,2S)-2-hydroxycyclohexyl)-5-methoxypyridine-2-carboxamide] |
| 94 | COc1cnc(C(=O)N[C@H]2CCCC[C@@H]2O)cc1Cc1ccc(-n2cccn2)cc1 [Example 63, N-((1S,2S)-2-Hydroxycyclohexyl)-5-methoxy-4-(4-(1H-pyrazol-1-yl)benzyl)pyridine-2-carboxamide] |
| 104 | COc1cnc(C(=O)N[C@H]2CCCC[C@@H]2O)cc1Cc1ccc(-c2cnn(C)c2)cc1 [Example 64, N-((1S,2S)-2-hydroxycyclohexyl)-5-methoxy-4-(4-(1-methyl-1H-pyrazol-4-yl)benzyl)pyridine-2-carboxamide] |
| 106 | Cc1nc(C(=O)N[C@H]2CCCC[C@@H]2O)cc(Cc2ccc(-c3ccn(C)n3)cc2)c1Cl [Example 65, 5-chloro-N-((1S,2S)-2-hydroxycyclohexyl)-6-methyl-4-(4-(1-methyl-1H-pyrazol-3-yl)benzyl)pyridine-2-carboxamide] |
| 105 | Cc1nc(C(=O)N[C@H]2CCCC[C@@H]2O)cc(Cc2ccc(C#N)cc2)c1Cl [Example 66, 5-chloro-4-(4-cyanobenzyl)-N-((1S,2S)-2-hydroxycyclohexyl)-6-methylpyridine-2-carboxamide] |
| 95 | N#Cc1cnc(C(=O)N[C@H]2CCCC[C@@H]2O)cc1Cc1ccc(-n2cccn2)cc1 [Example 67, 5-cyano-N-((1S,2S)-2-hydroxycyclohexyl)-4-(4-(1H-pyrazol-1-yl)benzyl)pyridine-2-carboxamide] |
| 96 | COc1cc(Cc2ccc(-n3cccn3)cc2)cc(C(=O)N[C@H]2CCC[C@@H]2O)n1 [Example 68, N-((1S,2S)-2-hydroxycyclopentyl)-6-methoxy-4-(4-(1H-pyrazol-1-yl)benzyl)pyridine-2-carboxamide] |
| 100 | COc1cc(Cc2ccc(-n3cccn3)cc2)cc(C(=O)N[C@H]2CCCC[C@@H]2O)n1 [Example 69, N-((1S,2S)-2-hydroxycyclohexyl)-6-methoxy-4-(4-(1H-pyrazol-1-yl)benzyl)pyridine-2-carboxamide] |
| 87 | Cc1cc(Cc2ccc(-n3cccn3)cc2)cc(C(=O)N[C@H]2CCCC[C@@H]2O)n1 [Example 70, N-((1S,2S)-2-hydroxycyclohexyl)-6-methyl-4-(4-(1H-pyrazol-1-yl)benzyl)pyridine-2-carboxamide] |
| 69 | COc1ccc(Cc2cc(C)nc(C(=O)N[C@H]3CCCC[C@@H]3O)c2)cc1 [Example 71, N-((1S,2S)-2-hydroxycyclohexyl)-4-(4-methoxybenzyl)-6-methylpyridine-2-carboxamide] |
| 94 | Cc1nc(C(=O)N[C@H]2CCCC[C@@H]2O)cc(Cc2ccc(Cl)nc2)c1C [Example 73, 4-((6-chloropyridin-3-yl)methyl)-N-((1S,2S)-2-hydroxycyclohexyl)-5,6-dimethylpyridine-2-carboxamide] |
| 102 | Cc1nc(C(=O)N[C@H]2CCC[C@@H]2O)cc(Cc2ccc(-n3cccn3)cc2)c1C [Example 75, N-((1S,2S)-2-hydroxycyclopentyl)-5,6-dimethyl-4-(4-(1H-pyrazol-1-yl)benzyl)pyridine-2-carboxamide] |
| 92 | Cc1nc(C(=O)N[C@H]2CCCC[C@@H]2O)cc(Cc2ccc(-n3cccn3)cc2)c1C [Example 76, N-((1S,2S)-2-hydroxycyclohexyl)-5,6-dimethyl-4-(4-(1H-pyrazol-1-yl)benzyl)pyridine-2-carboxamide] |
| 100 | Cc1nc(C(=O)N[C@H]2CCCC[C@@H]2O)cc(Cc2ccc(Br)cc2)c1C [Example 77, 4-(4-bromobenzyl)-N-((1S,2S)-2-hydroxycyclohexyl)-5,6-dimethylpyridine-2-carboxamide] |
| 104 | Cc1nc(C(=O)N[C@H]2COCC[C@@H]2O)cc(Cc2ccc(-n3cccn3)cc2)c1C [Example 78, 1,5-anhydro-2,4-dideoxy-2-(((5,6-dimethyl-4-(4-(1H-pyrazol-1-yl)benzyl)pyridin-2-yl)carbonyl)amino)-L-threo-pentitol] |
| 106 | Cc1nc(C(=O)N[C@H]2CCCC[C@@H]2O)cc(Cc2ccc(-c3cnn(C)c3)cc2)c1C [Example 79, N-((1S,2S)-2-hydroxycyclohexyl)-5,6-dimethyl-4-(4-(1-methyl-1H-pyrazol-4-yl)benzyl)pyridine-2-carboxamide] |
| 84 | Cc1nc(C(=O)N[C@H]2CCCC[C@@H]2O)cc(Cc2ccc(-c3cnn(C)c3)nc2)c1C [Example 80, N-((1S,2S)-2-hydroxycyclohexyl)-5,6-dimethyl-4-((6-(1-methyl-1H-pyrazol-4-yl)pyridin-3-yl)methyl)pyridine-2-carboxamide] |
| 97 | Cc1nc(C(=O)N[C@H]2CCCC[C@@H]2O)cc(Cc2ccc(-c3ccn(C)n3)cc2)c1C [Example 81, N-((1S,2S)-2-hydroxycyclohexyl)-5,6-dimethyl-4-(4-(1-methyl-1H-pyrazol-3-yl)benzyl)pyridine-2-carboxamide] |
| 103 | Cc1nc(C(=O)N[C@H]2COCC[C@@H]2O)cc(Cc2ccc(-c3ccn(C)n3)cc2)c1C [Example 82, 1,5-anhydro-2,4-dideoxy-2-(((5,6-dimethyl-4-(4-(1-methyl-1H-pyrazol-3-yl)benzyl)pyridin-2-yl)carbonyl)amino)-L-threo-pentitol] |
| 103 | COc1ccc(Cc2cc(C(=O)N[C@H]3COCC[C@@H]3O)nc(C)c2C)cc1 [Example 83, 1,5-anhydro-2,4-dideoxy-2-(((4-(4-methoxybenzyl)-5,6-dimethylpyridin-2-yl)carbonyl)amino)-L-threo-pentitol] |
| 93 | Cc1ccc(Cc2cc(C(=O)N[C@H]3CCCC[C@@H]3O)nc(C)c2C)cn1 [Example 84, N-((1S,2S)-2-hydroxycyclohexyl)-5,6-dimethyl-4-((6-methylpyridin-3-yl)methyl)pyridine-2-carboxamide] |
| 99 | Cc1nc(C(=O)N[C@H]2COCC[C@@H]2O)cc(Cc2ccc(Cl)nc2)c1C [Example 85, 1,5-anhydro-2-(((4-((6-chloropyridin-3-yl)methyl)-5,6-dimethylpyridin-2-yl)carbonyl)amino)-2,4-dideoxy-L-threo-pentitol] |
| 95 | Cc1nc(C(=O)N[C@H]2COCC[C@@H]2O)cc(Cc2ccc(-c3ccn(C)n3)nc2)c1C [Example 86, 1,5-anhydro-2,4-dideoxy-2-(((5,6-dimethyl-4-((6-(1-methyl-1H-pyrazol-3-yl)pyridin-3-yl)methyl)pyridin-2-yl)carbonyl)amino)-L-threo-pentitol] |
| 92 | COc1nc(C(=O)N[C@H]2COCC[C@@H]2O)cc(Cc2ccc(-c3ccn(C)n3)cc2)c1C [Example 87, 1,5-anhydro-2,4-dideoxy-2-(((6-methoxy-5-methyl-4-(4-(1-methyl-1H-pyrazol-3-yl)benzyl)pyridin-2-yl)carbonyl)amino)-L-threo-pentitol] |
